Key:
Experiment in all cases: relative viability (nuclei count vs DMSO), 5 days (fraction); higher = more cells survive
BAY61-3606 + Phenformin = compound: COC1=C(C=C(C=C1)C2=CC3=NC=CN3C(=N2)NC4=C(C=CC=N4)C(=O)N)OC [BAY61-3606] + N=C(N)NC(=N)NCCc1ccccc1 [Phenformin] (partner 250 µM)
In short: (§1)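 Dosing by pin tool came one day after lung cancer cell lines were seeded in 1536-well plates, using either one drug or a fixed anchor-drug dose plus five library-drug doses (not always all listed) in √10 steps. After 5 days, nuclei were counted on 4× images. Relative viability is treated-well nuclei count divided by vehicle-well nuclei count, and values are medians of duplicate plates.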

Doxorubicin + Alpelisib = compound: COc1cccc2c1C(=O)c1c(O)c3c(c(O)c1C2=O)C[C@@](O)(C(=O)CO)C[C@@H]3O[C@H]1C[C@H](N)[C@H](O)[C@H](C)O1 [Doxorubicin] + Cc1nc(NC(=O)N2CCC[C@H]2C(N)=O)sc1-c1ccnc(C(C)(C)C(F)(F)F)c1 [Alpelisib] (partner 2 µM)
In short: as §1

BAY61-3606 + Linsitinib = compound: COC1=C(C=C(C=C1)C2=CC3=NC=CN3C(=N2)NC4=C(C=CC=N4)C(=O)N)OC [BAY61-3606] + C[C@]1(O)C[C@@H](c2nc(-c3ccc4ccc(-c5ccccc5)nc4c3)c3c(N)nccn32)C1 [Linsitinib] (partner 1 µM)
In short: as §1

BAY61-3606 + Vorinostat = compound: COC1=C(C=C(C=C1)C2=CC3=NC=CN3C(=N2)NC4=C(C=CC=N4)C(=O)N)OC [BAY61-3606] + O=C(CCCCCCC(=O)Nc1ccccc1)NO [Vorinostat] (partner 1 µM)
In short: as §1

UMC-11
relative viability (BAY61-3606 + Phenformin; first compound 0.02 µM): 0.333
relative viability (BAY61-3606 + Phenformin; first compound 0.06325 µM): 0.339
relative viability (BAY61-3606 + Phenformin; first compound 0.2 µM): 0.334
relative viability (BAY61-3606 + Phenformin; first compound 0.6325 µM): 0.332
relative viability (BAY61-3606 + Phenformin; first compound 2 µM): 0.298
relative viability (Doxorubicin + Alpelisib; first compound 0.001 µM): 1.11
relative viability (Doxorubicin + Alpelisib; first compound 0.003162 µM): 1.17
relative viability (Doxorubicin + Alpelisib; first compound 0.01 µM): 0.958
relative viability (Doxorubicin + Alpelisib; first compound 0.03162 µM): 0.693
relative viability (Doxorubicin + Alpelisib; first compound 0.1 µM): 0.968
relative viability (BAY61-3606 + Linsitinib; first compound 0.02 µM): 1.08
relative viability (BAY61-3606 + Linsitinib; first compound 0.06325 µM): 1.11
relative viability (BAY61-3606 + Linsitinib; first compound 0.2 µM): 0.995
relative viability (BAY61-3606 + Linsitinib; first compound 0.6325 µM): 1.08
relative viability (BAY61-3606 + Linsitinib; first compound 2 µM): 1
relative viability (BAY61-3606 + Vorinostat; first compound 0.02 µM): 0.43
relative viability (BAY61-3606 + Vorinostat; first compound 0.06325 µM): 0.385
relative viability (BAY61-3606 + Vorinostat; first compound 0.2 µM): 0.436
relative viability (BAY61-3606 + Vorinostat; first compound 0.6325 µM): 0.465
relative viability (BAY61-3606 + Vorinostat; first compound 2 µM): 0.326

Reference: the supplement of paper PMC10307832
